Data from US6764999B2, “Nasal delivery of parasiticides” (priority 2002, dated 2004).

Assays:
[1] = serum levels of ivermectin after administration to the nasal pharynx; type: in vivo, beef steers
Description: To study the dose/response efficacy of nasal administration of macrocyclic lactone parasicides, three (3) beef steers of mixed breeding were used to evaluate three treatments. These three treatments were:
Treatments were applied and cattle were bled via jugular venipuncture at 0, 6, 24, 48, and 96 hours post-dosing.
Table I recites serum levels of ivermectin, in nanograms per milliliter, for the three treatments recited above at 0, 6, 24, 48, and 96 hours post dosing by nasal administration. Each treatment included delivering a 1 ml mixture comprising ivermectin and propylene glycol to the nasal pharnyx of the animal.

[2] = topical, 500 micrograms per kilogram body weight; cited from earlier work
[3] = injection, about 200 micrograms per kilogram of bodyweight; cited from earlier work
[4] = test system: most parasites; details: cattle; cited from earlier work
[5] = test system: Haemonchus contortus; details: cited from earlier work
[6] = test system: Trichostrongylus colubriformis; details: cited from earlier work
[7] = autoclave temperatures; cited from earlier work

In the case of ivermectin, the “serum level of ivermectin” value ([1]; Treatment 1, nasal, about 248 μg/kg in propylene glycol, 0 Hours) is reported as 0.19 nanograms per milliliter, the “serum level of ivermectin” value ([1]; Treatment 1, nasal, about 248 μg/kg in propylene glycol, 6 Hours) is reported as 5.87 nanograms per milliliter and the “serum level of ivermectin” value ([1]; Treatment 1, nasal, about 248 μg/kg in propylene glycol, 24 Hours) is reported as 15.24 nanograms per milliliter. For the same substance, the “serum level of ivermectin” value ([1]; Treatment 1, nasal, about 248 μg/kg in propylene glycol, 48 Hours) was 11.22 nanograms per milliliter, the “serum level of ivermectin” value ([1]; Treatment 1, nasal, about 248 μg/kg in propylene glycol, 96 Hours) was 7.58 nanograms per milliliter and the “maximum serum level CMAX(1)” value ([1]; Treatment 1, nasal, about 248 micrograms per kilogram body weight) was “about 15 nanograms of ivermectin per ml of blood”. The “CMAX(1)” value ([1]; Treatment 1, nasal, about 248 micrograms per kilogram, as restated) was “greater than 15 ng/ml”, the “serum level of ivermectin” value ([1]; Treatment 2, nasal, about 409 μg/kg in propylene glycol, 0 Hours) was 0.21 nanograms per milliliter and the “serum level of ivermectin” value ([1]; Treatment 2, nasal, about 409 μg/kg in propylene glycol, 6 Hours) was 6.58 nanograms per milliliter. The “serum level of ivermectin” value ([1]; Treatment 2, nasal, about 409 μg/kg in propylene glycol, 24 Hours) was 24.48 nanograms per milliliter, the “serum level of ivermectin” value ([1]; Treatment 2, nasal, about 409 μg/kg in propylene glycol, 48 Hours) was 19.71 nanograms per milliliter and the “serum level of ivermectin” value ([1]; Treatment 2, nasal, about 409 μg/kg in propylene glycol, 96 Hours) was 13.88 nanograms per milliliter. The “maximum serum level CMAX(2)” value ([1]; Treatment 2, nasal, about 409 micrograms per kilogram body weight) was “about 24 nanograms of ivermectin per ml of blood”, the “serum level of ivermectin” value ([1]; Treatment 3, nasal, about 872 μg/kg in propylene glycol, 0 Hours) was 0.22 nanograms per milliliter and the “serum level of ivermectin” value ([1]; Treatment 3, nasal, about 872 μg/kg in propylene glycol, 6 Hours) was 22.51 nanograms per milliliter. The “serum level of ivermectin” value ([1]; Treatment 3, nasal, about 872 μg/kg in propylene glycol, 24 Hours) was 40.79 nanograms per milliliter, the “serum level of ivermectin” value ([1]; Treatment 3, nasal, about 872 μg/kg in propylene glycol, 48 Hours) was 30.53 nanograms per milliliter and the “serum level of ivermectin” value ([1]; Treatment 3, nasal, about 872 μg/kg in propylene glycol, 96 Hours) was 19.38 nanograms per milliliter. The “maximum serum level CMAX(3)” value ([1]; Treatment 3, nasal, about 872 micrograms per kilogram body weight) was “about 41 nanograms of ivermectin per ml of blood”, the “time for which serum levels of ivermectin exceed 2 ng ml^−1” value ([1]; all three treatments, nasal) was over 96 h and the CMAX [2] was 12.2 ng/mL. The CMAX serum level [3] was “about 30 ng/ml”, the “serum level sufficient to protect the animal against reinfestation of most parasites” value [4] was over 2 ng/mL and the “inhibition of pharyngeal pumping compared with motility” value [5] was “more potent inhibition of pharyngeal pumping than motility”. The “inhibition of pharyngeal pumping compared with motility” value [6] was “more potent inhibition of pharyngeal pumping than motility” and the thermal stability [7] was “subject to decomposition at autoclave temperatures”.
